In US9518041B2, “(+)-5-(3,4-difluorophenyl)-5-[(3-methyl-2-oxopyridin-1(2H)-yl)methyl]imidazolidine-2,4-dione and drug containing same” (KAKEN PHARMACEUTICAL CO., LTD., priority 2013, dated 2016):

Columns and labels:
human MMP-3 = target: T1, human MMP-3 (Homo sapiens, UniProt P08254); assay: MMP-3 inhibition test; type: biochemical; conditions: read-out: Inhibitory activity (IC50, nM) MMP-3
T1 construct: purchased Calbiochem 444217
Description: (§1) MMP inhibition tests can be carried out, for example, using a fluorescent synthetic substrate based on the methods described in Bickett et al. (D. Mark Bickett et al., Anal. Biochem., 1993, 212, 58-64) and Nagase et al. (H. Nagase et al., J. Biol. Chem., 1994, 269, 20952-20957). The method for each MMP inhibition test is shown below.
90 μL (1.5 ng) of human MMP-3 (Calbiochem #444217) prepared with an assay buffer A was added to 90 μL of a 20 μM fluorescent substrate NFF-3 (MOCAc((7-methoxycoumarin-4-yl)acetyl)-Arg-Pro-Lys-Pro-Val-Glu-Nva-Trp-Arg-Lys(Dnp)-NH2, Peptide Institute Inc., #3168-v) (SEQ ID NO: 4) prepared with an assay buffer B, and reacted at 37° C. for 4 hours. Enzyme activity was then determined by measuring with a fluorescence intensity meter (Labsystems, Fluoroskan Ascent) at an excitation wavelength of 320 nm and a measurement wavelength of 405 nm.
(§2) From the enzyme activity in the presence or the absence of the test substance, the inhibition rate was determined, and the 50% inhibitiory concentration (IC50) of the test substance was calculated.

human MMP-13 = target: T2, human MMP-13 (Homo sapiens, UniProt P45452); assay: MMP-13 inhibition test; type: biochemical; conditions: read-out: Inhibitory activity (IC50, nM) MMP-13
T2 construct: purchased Calbiochem 444287
Description: as §1
90 μL (130 ng) of human MMP-13 (Calbiochem #444287) was mixed with 10 μL of 10 mM APMA, and activated by reacting at 37° C. for 1 hour. 10 μL of the resultant enzyme solution was diluted to 90 μL with an assay buffer A. The mixture was added to 90 μL of a 20 μM fluorescent substrate (Dnp-Pro-Cha-Gly-Cys(Me)-His-Ala-Lys(Nma)-NH2) (SEQ ID NO: 2) prepared with an assay buffer B, and reacted at 37° C. for 4 hours. Enzyme activity was then determined by measuring with a fluorescence intensity meter (Labsystems, Fluoroskan Ascent) at an excitation wavelength of 355 nm and a measurement wavelength of 460 nm.
as §2

[1] = Solubility test in organic solvents (propylene glycol, butylene glycol); type: physicochemical; conditions: organic solvent or mixture, thermodynamic from solid
Description: Under room temperature conditions, in a 0.5 mL polypropylene tube, (+)-5-(3,4-difluorophenyl)-5-[(3-methyl-2-oxopyridin-1(2H)-yl)methyl]imidazolidine-2,4-dione and (±)-5-(3,4-difluorophenyl)-5-[(3-methyl-2-oxopyridin-1(2H)-yl)methyl]imidazolidine-2,4-dione measured in advance for a suitable amount were prepared, respectively. In each tube, solvent (Propylene glycol (PG) or butylene glycol (BG)) was added with various amounts, e.g. 10 times, 20 times or 100 times amount of the test compound, and stirred with a vortex mixer. With a table ultrasonic washer set at 37° C., ultrasonication treatment was given for 10 minutes; after warming for an hour in a thermostat chamber, each were kept standing for 24 hours at room temperature. The test solutions were observed by sight to evaluate the states in accordance with the determination criterion given below.
Determination criterion consisted of the following two categories:
“Soluble”: Test compound dissolved; no undissolved substances confirmed by visual observation.
“Insoluble”: Test compound remains undissolved; undissolved substances confirmed by visual observation.

[2] = Pharmacokinetic study after intravenous and percutaneous administration in hairless mice; type: in vivo; conditions: 1 w/v % Macrogol 400 solution, 50 μL/animal, occlusive
Description: Test substances (0.1 to 0.5 mg/5 mL/kg) were administered by bolus injection into the tail vein of hairless mice under anesthesia.
A 4 cm^2 administration site (2 cm×2 cm) was marked on the back skin of hairless mice under anesthesia (fed) using an oil-based marker. Test substances were applied to the administration site at 50 μL/animal (1 w/v % Macrogol 400 solution). Gauze (BEMCOT®) about 2 cm×2 cm in size was fixed using double-sided tape to an approximately 4 cm×4 cm polyethylene sheet, and the gauze face was placed over the face on which the test substance had been applied. An adhesive elastic bandage (Elastopore, about 10 cm) was stuck over the gauze to fix and protect the face on which the test substance had been applied. The mice were then returned to its cage. Twenty-four hours after administration, occlusive application was confirmed to have been properly carried out. […]
The cryopreserved plasma obtained by the above method was thawed at room temperature. After removing the protein using methanol, the concentration of the test substance in the plasma was measured. […]
Transdermal absorption rate was calculated using the following equation by calculating the AUC (area under the curve of the concentration in plasma) from the plasma concentration of the test substance measured by the method described above. […]

human MMP-17 = target: T3, human MMP-17 (Homo sapiens, UniProt Q9ULZ9); assay: MMP-17 inhibition test; type: biochemical; conditions: read-out: Inhibitory activity (IC50, nM) MMP-17
T3 sequence (Q9ULZ9 126-300 limits assumed): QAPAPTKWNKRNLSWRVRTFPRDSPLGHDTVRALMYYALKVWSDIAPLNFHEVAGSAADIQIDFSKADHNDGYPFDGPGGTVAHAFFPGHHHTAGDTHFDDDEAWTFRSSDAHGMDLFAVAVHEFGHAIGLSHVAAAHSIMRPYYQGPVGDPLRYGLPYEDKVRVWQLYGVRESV
Description: as §1
90 μL (5.8 ng) of human MMP-17 (Calbiochem #475940) prepared with an assay buffer A was added to 90 μL of a 20 μM fluorescent substrate (MOCAc-Pro-Leu-Gly-Leu-A2pr(Dnp)-Ala-Arg-NH2, Peptide Institute Inc., #3163-v) (SEQ ID NO: 3) prepared with an assay buffer B, and reacted at room temperature for 5 hours. Enzyme activity was then determined by measuring with a fluorescence intensity meter (Labsystems, Fluoroskan Ascent) at an excitation wavelength of 320 nm and a measurement wavelength of 405 nm.
From the enzyme activity in the presence or the absence of the test substance, the inhibition rate was determined, and the 50% inhibitory concentration (IC50) of the test substance was calculated.

T1 sequence (P08254 100-272 limits assumed): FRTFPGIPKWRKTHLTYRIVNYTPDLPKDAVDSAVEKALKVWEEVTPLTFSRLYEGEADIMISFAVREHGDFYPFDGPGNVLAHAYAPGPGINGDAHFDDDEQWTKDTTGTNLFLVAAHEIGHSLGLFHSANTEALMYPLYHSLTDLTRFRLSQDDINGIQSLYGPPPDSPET

Cc1cccn(CC2(c3ccc(F)c(F)c3)NC(=O)NC2=O)c1=O (single isomer, unassigned; (+)) [(+)-5-(3,4-difluorophenyl)-5-[(3-methyl-2-oxopyridin-1(2H)-yl)methyl]imidazolidine-2,4-dione]
IC50 (human MMP-3): > 10000 nM | IC50 (human MMP-13): > 10000 nM | solubility at 24 h [1]: > 10000 µg/mL | Transdermal absorbability after percutaneous administration [2]: good transdermal absorbability | IC50 (human MMP-17): > 10000 nM
